The source of these data is US4029881A, “Antibiotic 9-acyl-3"-thiomethoxymethyl-SF-837 composition and process for preparing the same” (Meiji Seika Co., Ltd., priority 1972, dated 1977).

Converted amounts (≈) assume the structure as drawn. Where two headings read alike, the source gives them in different places. Bounds are passed on as bounds.

Data set [1] deals with Streptococcus pyrogenes Ti-125 Gr-A Type I. Put plainly: therapeutic effect, treatment of animals infected by Streptococcus (Table 3 B). The settings on record: orally once, 5LD50. The data set is classed as in vivo, ICR-JCL mouse. The procedure: B. treatment of animals infected by Streptococcus
Animals tested: The same as in A.
Method of administration: The same as in A.
Bacterium inoculated: Streptococcus pyrogenes Ti-125 Gr-A Type I.
Inoculum size: 1× 10^7 cells/0.5 ml/mouse(5LD50).

Data set [2] relates to Staphylococcus aureus 209-P. Briefly: therapeutic effect, treatment of animals infected by Staphylococcus (Table 3 A). It is filed as in vivo, ICR-JCL mouse. The note with it: orally once, 10 LD50. From the text:
Therapeutic effect of the 9-acyl-3"-thiomethoxymethyl-SF-837 substance against bacterial infections.
A. treatment of animals infected by Staphylococcus. Animals tested: ICR-JCL mouse, 4-week old, male, 10 heads for each group.
Bacterium inoculated: Staphylococcus aureus 209-P.
Method of administration: Samples were suspended in a sterilized 2% aqueous gum arabic solution and administered once to the mice inoculated with the bacterium.

Another data set in a line: acute toxicity. It is filed as in vivo, ICR-JCL mice. The note with it: intraperitoneal, male mice, dead/tested. The source says:
The acute toxicity of the 9-acyl-3"-thiomethoxymethyl-SF-837 substance
Animals tested: ICR-JCL mice, male.
Samples: Each substance was suspended in a 5% aqueous arabic gum solution.
Method of administration: Intraperitoneal injection.

In data set [3] the test system is Mycoplasma gallisepticum KP-3. Briefly: antimicrobial spectrum, minimal inhibitory concentration. The note with it: Mycoplasmoides gallisepticum, KP3. The data set is classed as cell-based. From the text: (§1) The antimicrobial spectrum of the 9-acyl-3"-thiomethoxymethyl-SF-837 substance obtained according to the present invention is shown in Table 1.
(§2) The antimicrobial spectrum of the 9-acetyl- and 9-propionyl-3"-thiomethoxymethyl-SF-837 substance made according to the invention.

In a further data set the test system is Staphylococcus aureus. The description is as above. The data set is classed as cell-based.
Description: as §1, §2

For data set [4], the system named is Mycoplasma gallisepticum S-15P. The description is as above. It is filed as cell-based. The settings on record: Mycoplasmoides gallisepticum, read-out: Minimal Inhibitory Concentration.
Description: as §1, §2

The subject of the next data set is Mycobacterium 607. The description is as above. The data set is classed as cell-based.
Description: as §1, §2

Data set [5] concerns Mycoplasma gallisepticum KP-13. The data set is described as above. The data set is classed as cell-based. The note with it: Mycoplasmoides gallisepticum, KP13.
Description: as §1, §2

Data set [6] concerns Neisseria gonorrhoeae Megurita. The description is as above. The data set is classed as cell-based.
Description: as §1, §2

The test system of data set [7] is Mycoplasma gallisepticum S-35P. The description is as above. The settings on record: Mycoplasmoides gallisepticum, read-out: Minimal Inhibitory Concentration. The data set is classed as cell-based.
Description: as §1, §2

Another data set has as its system Escherichia coli. The data set is described as above. The data set is classed as cell-based.
Description: as §1, §2

Another data set relates to Neisseria meningitidis. Described as above. It is filed as cell-based.
Description: as §1, §2

In another data set the test system is Vibrio coli SD-362. Described as above. It is filed as cell-based. The settings on record: Campylobacter coli, SD362.
Description: as §1, §2

Another data set concerns Vibrio coli SD-358. Described as above. It is filed as cell-based. The settings on record: Campylobacter coli, SD358.
Description: as §1, §2

Data set [8] deals with Mycoplasma gallisepticum CH3T. Described as above. It is filed as cell-based. The settings on record: Mycoplasmoides gallisepticum.
Description: as §1, §2

The subject of a further data set is Vibrio coli 34E. The data set is described as above. The data set is classed as cell-based. The note with it: Campylobacter coli.
Description: as §1, §2

Data set [9] has as its system Mycoplasma gallisepticum S-6. Described as above. The data set is classed as cell-based. The settings on record: Mycoplasmoides gallisepticum, S6.
Description: as §1, §2

The test system of data set [10] is Mycoplasma gallisepticum T-4AT (tyrosine-resistant). Put plainly: microbe, parasite or virus in culture. The data set is classed as cell-based. The settings on record: Mycoplasmoides gallisepticum, read-out: Minimal Inhibitory Concentration.
Description: as §1, §2

Data set [11] has as its system Staphylococcus aureus Strain 209-P. Briefly: therapeutic effect on staphylococcal infection of mice (Table 2). It is filed as in vivo. The settings on record: 350mg/Kg oral; intraperitoneal infection by Staphylococcus aureus 209-P. From the text:
Since the 9-acyl-3"-thiomethoxymethyl-SF-837 substance is inhibitory against Gram-positive bacteria as the SF-837 substance is, it is as well available as an antimicrobial agent. Particularly, it is notable that the in vitro antimicrobial activity of the 9-acyl-3"-thiomethoxymethyl-SF-837 substance of the present invention against Escherichia coli, Mycobacterium, Mycoplasma, and macrolide-resistant Mycoplasma is higher than that of the SF-837 substance. Furthermore, the results of the therapeutic tests using the mice infected by Staphylococcus aureus Strain 209 P was better with the said 9-acyl-3"-thiomethoxymethyl-SF-837 substance than with its parent substance (see Table 2).
Therapeutic effect of the 9-acyl-3"thiomethoxy-methyl-SF-837 substance made according to the invention on the staphylococcal infection of mice in laboratory*).
*)Infection of mouse intraperitoneally by Staphylococcus aureus Strain

Where [12] appears, read: S15P, Mycoplasma gallisepticum S-15P.
The mark [13] stands for this setting: S35P, Mycoplasma gallisepticum S-35P.

Consider `CCC(=O)OC1CC(=O)OC(C)CC=CC=CC(OC(C)=O)C(C)CC(CC=O)C(OC2OC(C)C(OC3CC(C)(O)C(OC(=O)CC)C(C)O3)C(N(C)C)C2O)C1OC` (stereo not shown) [9-Acetyl-SF-837, reference compound], for which the Survival rate in data set [1] (100 mg/Kg) is on record as 100%; in [1] (200 mg/Kg) it was 100%; in [1] (300 mg/Kg), 100%; in data set [1] (400 mg/Kg), 100%; in data set [2] (150 mg/Kg), 80%; in data set [2] (200 mg/Kg), 100%. Moreover, the Survival rate in data set [2] (350 mg/Kg) and in data set [2] (400 mg/Kg) was 100% in each case. The Mortality in the data set “acute toxicity” (2,000 mg/Kg) was 0/3; in “acute toxicity” (4,000 mg/Kg) it was 1/3.

With `CCC(=O)OC1CC(=O)OC(C)CC=CC=CC(OC(C)=O)C(C)CC(CC=O)C(OC2OC(C)C(OC3CC(C)(OCSC)C(OC(=O)CC)C(C)O3)C(N(C)C)C2O)C1OC` (stereo not shown) [9-acetyl-3"-thiomethoxymethyl-SF-837], the Survival rate is listed as 100% in [1] (100 mg/Kg); 100% in data set [1] (200 mg/Kg); 100% in data set [1] (300 mg/Kg); 100% in data set [1] (400 mg/Kg); 30% in data set [2] (150 mg/Kg); 80% in [2] (200 mg/Kg). Moreover, the Survival rate in data set [2] (350 mg/Kg) came to 90%; in data set [2] (400 mg/Kg) it was 100%. The MIC in [3] was less than 0.1 µg/mL; with Staphylococcus aureus, 0.78 µg/mL (≈ 0.851 µM); in [4] (setting [12]), less than 0.1 µg/mL; in the data set with Mycobacterium 607, 6.25 µg/mL (≈ 6.82 µM); in data set [5], less than 0.1 µg/mL; in data set [6], 100 µg/mL (≈ 109 µM). The MIC in [7] (setting [13]) was less than 0.1 µg/mL; with Escherichia coli, 50 µg/mL (≈ 54.6 µM); in the data set with Neisseria meningitidis, 6.25 µg/mL (≈ 6.82 µM); in the data set with Vibrio coli SD-362, 25 µg/mL (≈ 27.3 µM); in the data set on Vibrio coli SD-358, more than 50 µg/mL; in data set [8] it was less than 0.1 µg/mL. In addition, the MIC in the data set with Vibrio coli 34E is 25 µg/mL (≈ 27.3 µM); in data set [9] it was less than 0.1 µg/mL; in data set [10], 12.5 µg/mL (≈ 13.6 µM). For the same compound, the Mortality in “acute toxicity” (2,000 mg/Kg) and in “acute toxicity” (4,000 mg/Kg) was 0/3 throughout. Also, in data set [11], the “Survival rate in a week after oral administration” value (“Survival rate in a week” below) is on record as 90%.

As to `CCC(=O)OC1C=CC=CCC(C)OC(=O)CC(OC(=O)CC)C(OC)C(OC2OC(C)C(OC3CC(C)(OCSC)C(OC(=O)CC)C(C)O3)C(N(C)C)C2O)C(CC=O)CC1C` (stereo not shown) [9-propionyl-3"-thiomethoxymethyl-SF-837], the Survival rate in data set [1] (100 mg/Kg) is reported as 100%; in data set [1] (200 mg/Kg), 100%; in data set [1] (300 mg/Kg), 100%; in [1] (400 mg/Kg) it was 100%; in data set [2] (150 mg/Kg), 30%; in data set [2] (200 mg/Kg) it was 70%. Further, the results for the Survival rate in data set [2] (350 mg/Kg) and in data set [2] (400 mg/Kg) were 90% and 100%, respectively. Also, the MIC in [3] is less than 0.1 µg/mL; against Staphylococcus aureus, 0.78 µg/mL (≈ 0.839 µM); in data set [4] (setting [12]), less than 0.1 µg/mL; in the data set on Mycobacterium 607, 6.25 µg/mL (≈ 6.72 µM); in data set [5], less than 0.1 µg/mL; in [6], 100 µg/mL (≈ 108 µM). In addition, the MIC in data set [7] (setting [13]) was less than 0.1 µg/mL; with Escherichia coli it was 50 µg/mL (≈ 53.8 µM); with Neisseria meningitidis, 6.25 µg/mL (≈ 6.72 µM); in the data set on Vibrio coli SD-362, 25 µg/mL (≈ 26.9 µM); against Vibrio coli SD-358 it was more than 50 µg/mL; in data set [8], less than 0.1 µg/mL. Besides, the MIC against Vibrio coli 34E was 25 µg/mL (≈ 26.9 µM); in data set [9], less than 0.1 µg/mL; in data set [10], 12.5 µg/mL (≈ 13.4 µM). The Mortality in “acute toxicity” (2,000 mg/Kg) and in the data set “acute toxicity” (4,000 mg/Kg) was 0/3 each time. The “Survival rate in a week” value in [11] is recorded as 90%.

For `CCC(=O)OC1CC(=O)OC(C)CC=CC=CC(O)C(C)CC(CC=O)C(OC2OC(C)C(OC3CC(C)(O)C(OC(=O)CC)C(C)O3)C(N(C)C)C2O)C1OC` (stereo not shown) [SF-837], the Survival rate came out at 70% in data set [1] (100 mg/Kg); 90% in data set [1] (200 mg/Kg); 100% in data set [1] (300 mg/Kg); 100% in data set [1] (400 mg/Kg); 20% in data set [2] (150 mg/Kg); 40% in data set [2] (200 mg/Kg). In addition, the Survival rate is given as 60% in data set [2] (350 mg/Kg) and 90% in data set [2] (400 mg/Kg). Besides, the MIC in data set [3] was less than 0.05 µg/mL; against Staphylococcus aureus it was 0.78 µg/mL (≈ 0.958 µM); in [4], 0.05 µg/mL (≈ 0.0614 µM); against Mycobacterium 607 it was 25 µg/mL (≈ 30.7 µM); in data set [5], less than 0.05 µg/mL; in data set [6], 25 µg/mL (≈ 30.7 µM). Further, the MIC in data set [7] was 0.05 µg/mL (≈ 0.0614 µM); against Escherichia coli, 100 µg/mL (≈ 123 µM); against Neisseria meningitidis it was 6.25 µg/mL (≈ 7.68 µM); with Vibrio coli SD-362, more than 50 µg/mL; with Vibrio coli SD-358, more than 50 µg/mL; in data set [8], less than 0.05 µg/mL. Besides, the MIC with Vibrio coli 34E is 12.5 µg/mL (≈ 15.4 µM); in data set [9], 0.1 µg/mL (≈ 0.123 µM); in data set [10], more than 100 µg/mL. Further, the Mortality in “acute toxicity” (2,000 mg/Kg) and in “acute toxicity” (4,000 mg/Kg) was 2/3 each time. The “Survival rate in a week” value in data set [11] was determined as 37.5%.
